Experimental data reported in patent US12371668B2, “Methods for tissue generation” (priority 2018, dated 2025).
“Also recorded” adds a separate entry of the source. One block for each compound: values may come before it.

How the values were obtained:
[1] = test system: atrial region of heteropolar Biowires (Hes3 hESC); assay: Optical mapping of impulse propagation in atrioventricular Biowires, atrial region; type: cell-based, human; settings: 1 μM
Procedure: (§1) To generate atrioventricular tissues, dissociated atrial cardiac cells and cardiac fibroblasts were mixed in a 10:1.5 cell number ratio. Dissociated ventricular cells and cardiac fibroblasts were mixed in a 10:1.5 cell number ratio. The mixed cells were pelleted and resuspended at a concentration of 5.75×10^7 cells/mL in collagen hydrogel. When seeding, cell-hydrogel mixture containing atrial CMs (1 μL) were seeded on one side of the Biowire II well first, followed by mixture containing ventricular CMs (1 μL) seeded on the other side. After seeding, tissues were cultured for 7 days to allow for remodeling and compaction around the POMaC wires.
(§2) For atrioventricular preparations, electrical stimulation started at 2 Hz on day 7 and the protocol of 1 Hz weekly step-up was used until the frequency reached 6 Hz. If average MCR exceeded 4 Hz after one week of 2 Hz stimulation, or exceeded 5 Hz after one week of 3 Hz stimulation, stimulation frequency could be changed directly from 2 Hz to 4 Hz or 3 Hz to 5 Hz to accelerate the process. […]
(§3) Tissues were perfused with 5 μM voltage sensitive dye, Di-4-ANEPPS (Invitrogen), in Kreb's Solution at 35-37° C. for 20 min. Dye fluorescence was recorded on an MVX-10 Olympus fluorescence microscope (Olympus Corporation) equipped with a charged coupled device (CCD) (Cascade 128, Photometrics). […]

[2] = test system: ventricular portions of heteropolar Biowires (Hes3 hESC); assay: Optical mapping of impulse propagation in atrioventricular Biowires, ventricular region; type: cell-based, human; settings: 1 μM, listed as Ranolazine
Procedure: as §1, §2, §3

[3] = test system: atrial tissues derived from Hes3 hESC-CM; assay: Intracellular action potential recordings in atrial Biowires; type: cell-based, human
Procedure: (§4) Tissues were perfused with 35-37° C. Kreb's Solution (118 mM NaCl, 4.2 mM KCl, 1.2 mM KH2PO4, 1.2 mM MgSO4, 1.8 mM CaCl2, 23 mM NaHCO3, 2 mM Na-pyruvate and 20 mM glucose, equilibrated with 95% 02 and 5% CO2, pH 7.4) or DMEM medium. They were paced at twice the ET. The action potential was recorded with high impedance microelectrodes (60-90 MΩ) filled with 3M KCl, connected to an Axopatch 200B amplifier (Axon Instruments). Recordings were performed in current clamp mode at 2 kHz and signals were analyzed using the Clampfit 10 Data Analysis Module of the pCLAMP™ 10 Electrophysiology Data Acquisition & Analysis Software (Axon Instruments). The movement of the tissue was minimized by perfusing with 10 μM blebbistatin (Toronto Research Chemicals) for 20 min. The effect of various compounds on the action potential was assessed by preparing an appropriate dilution of the compound in Krebs's Solution or DMEM.

[4] = test system: ventricular tissues derived from BJ1D iPSC-CM; assay: Intracellular action potential recordings in ventricular Biowires; type: cell-based, human; settings: for responses on action potentials: ventricular Biowires, FIGS. 12E-12N
Procedure: as §4, with “Kreb's Solution (118 mM NaCl, 4.2 mM KCl, 1.2 mM KH2PO4, 1.2 mM MgSO4, 1.8 mM CaCl2, 23 mM NaHCO3, 2 mM Na-pyruvate and 20 mM glucose, equilibrated with 95% 02 and 5% CO2, pH 7.4) or DMEM medium.” left out

[5] = test system: ventricular Biowires created from BJ1D iPSCs and HES3 ESCs; assay: Dynamic force recordings of ventricular Biowires under stimulation; type: cell-based, human; settings: FIG. 2G
Procedure: Blue channel image sequences were analyzed using a custom MatLab code that traced the maximum deflection of the POMaC wire. Average tissue width (diameter) and width of the tissue on the polymer wire (Tw) were measured from still frames of the 4× bright field video of the tissue in the relaxed position (FIGS. 8C-8D). Total (at peak contraction) and passive (at rest) POMaC wire deflections were converted to force measurements (μN) using the force calibration curves described in the previous section. The final readouts for the total and passive tension of tissue were then interpolated according to the Tw and custom tip sizes. The active force was calculated as the difference between the total and passive tension (FIG. 2C). The custom MatLab code was used to calculate the passive tension, active force, contraction and relaxation duration, and upstroke and relaxation velocity. To investigate the contractile effects of various compounds on the tissues, a custom testing chamber was fabricated in a 6-well plate modified with an extraction/injection port connected to a 5 mL syringe, a pair of carbon electrodes (set 1 cm apart) with platinum wire lead attachments and a custom 3D-printed holder for a polystyrene chip with a single microwell. Prior to testing, the tissue was transferred to the custom testing chamber and placed in the environmental chamber on the microscope stage (37° C., 5% CO2), where it was allowed to equilibrate for 30 min in the presence of electrical field stimulation (1 Hz, at ET). A bright field video of the tissue was taken before testing to obtain all the necessary measurements for the force calculation. For testing, the voltage was increased to 10% above the ET, and videos were taken of one polymer wire (10× objective). Prior to the test compound injection, media were extracted and injected through the port twice at 10 min intervals to pre-condition the tissue to the testing process. Compounds were diluted in media at concentrations 1000-fold higher than the desired final concentration. For compound testing, ⅓^rd of the media was extracted from the chamber, the compound was added to the extracted media and then injected back into the testing chamber. After 10-15 min, videos in the blue channel were recorded. The procedure was repeated for sequential drug dosages. The videos were analyzed using the custom MatLab software, as indicated for the weekly FFR assessments.

[6] = Long-term absorption test, PDMS chips; type: physicochemical; settings: 1 wk incubation then washout for 2 hours
Procedure: (§5) For the long-term absorption test, polystyrene strips containing microwells and POMaC wires, with and without the adhesive, were cut into chips (9 mm×9 mm×1 mm) containing a single microwell. Chips of the same geometry were also made using PDMS. The polystyrene and PDMS chips were incubated in 1 mL Rhodamine B (1 μM; Sigma-Aldrich) in a 24 well-plate at 37° C. for up to 1 wk. Tissue culture treated 24 well-plates were incubated with the dye in the absence of any chips as a control. At 6 h, 24 h, 48 h, and 1 wk, 100 μL of the dye solution was transferred to a 96-well plate and the fluorescence was read using a SpectraMax i3 plate reader (Molecular Devices; λex=540 nm, λem=625 nm), (n=3). Additionally, fluorescent images of the chips were taken in the absence of treatment, after 1 wk of dye incubation, and after 2 h of washing following 1 wk of dye incubation.

[7] = Long-term absorption test, Biowire chips; type: physicochemical
Procedure: as §5

[8] = test system: atrial tissue derived from Hes3 hESC-CM; assay: Force and calcium transient measurement in atrial Biowires; type: cell-based, human; settings: atrial preparations, increasing concentrations
Procedure: To investigate the contractile effects of various compounds on the tissues, a custom testing chamber was fabricated in a 6-well plate modified with an extraction/injection port connected to a 5 mL syringe, a pair of carbon electrodes (set 1 cm apart) with platinum wire lead attachments and a custom 3D-printed holder for a polystyrene chip with a single microwell. Prior to testing, the tissue was transferred to the custom testing chamber and placed in the environmental chamber on the microscope stage (37° C., 5% CO2), where it was allowed to equilibrate for 30 min in the presence of electrical field stimulation (1 Hz, at ET). […] After 10-15 min, videos in the blue channel were recorded. […] The videos were analyzed using the custom MatLab software, as indicated for the weekly FFR assessments.
(§6) To investigate the relative changes of intracellular calcium concentration, tissues were incubated with the calcium dye Fluo-4 NW (Thermo Fisher) for 30 min at 37° C. prior to testing. […] The ratio of peak tissue fluorescence intensity to baseline intensity, dF/F0 was calculated to determine the relative changes in intracellular calcium in the presence of the compound. For the consecutive force and calcium transient readouts, contractile measurements were extracted from the blue channel as described before. […]

[9] = test system: ventricular tissue derived from BJ1D iPSC-CM; assay: Force and calcium transient measurement in ventricular Biowires; type: cell-based, human
Procedure: To investigate the contractile effects of various compounds on the tissues, a custom testing chamber was fabricated in a 6-well plate modified with an extraction/injection port connected to a 5 mL syringe, a pair of carbon electrodes (set 1 cm apart) with platinum wire lead attachments and a custom 3D-printed holder for a polystyrene chip with a single microwell. Prior to testing, the tissue was transferred to the custom testing chamber and placed in the environmental chamber on the microscope stage (37° C., 5% CO2), where it was allowed to equilibrate for 30 min in the presence of electrical field stimulation (1 Hz, at ET). A bright field video of the tissue was taken before testing to obtain all the necessary measurements for the force calculation. For testing, the voltage was increased to 10% above the ET, and videos were taken of one polymer wire (10× objective). Prior to the test compound injection, media were extracted and injected through the port twice at 10 min intervals to pre-condition the tissue to the testing process. […] For compound testing, ⅓^rd of the media was extracted from the chamber, the compound was added to the extracted media and then injected back into the testing chamber. After 10-15 min, videos in the blue channel were recorded. The procedure was repeated for sequential drug dosages. The videos were analyzed using the custom MatLab software, as indicated for the weekly FFR assessments.
as §6, with “before. For the synchronous readouts, the contractile measurements were extracted from the green channel videos using modified version of the ImageJ SpotTracker plugin.” for “before.”

[10] = test system: atrial end of heteropolar atrio-ventricular Biowires (Hes3 hESC); assay: Calcium transients in atrioventricular Biowires, atrial end; type: cell-based, human
Procedure: as §1, with “wires. […]” for “wires.”
as §6, with “testing. To obtain both calcium transients and contractility readouts consecutively and synchronously, the testing process was performed using both green light channel (λex=490 nm, λem=525 nm) and/or blue channel at 10× or 4× magnification.” for “testing.”

[11] = atrial Biowires, low doses (25 μM)

Structure (SMILES): COc1ccccc1OCC(O)CN1CCN(CC(=O)Nc2c(C)cccc2C)CC1 (centres unmarked) [ranolazine]
conduction velocity [1]: significantly slowed down
conduction velocity ([1]; listed as Ranolazine): decreased conduction velocity
conduction velocity [2]: without affecting

Structure (SMILES): Nc1ccncc1 [4AP, 4-aminopyridine]
APD30 [3, 11]: prolonged
action potential amplitudes [3, 11]: increased
AP duration ([3]; atrial tissues, very low concentrations (<50 μM)): prolonged
APD ([4]; ventricular tissues, higher doses): did prolong APD
action potential amplitudes and APD30 ([4]; ventricular tissues, low doses (25 μM)): without measurable effects

Structure (SMILES): COc1ccc([C@@H]2Sc3ccccc3N(CCN(C)C)C(=O)[C@@H]2OC(C)=O)cc1 [diltiazem]
changes in the active forces and beat patterns [5]: produces negative inotropic effects

Structure (SMILES): CC(C)NCC(O)c1ccc(O)c(O)c1 (centres unmarked) [isoproterenol]
changes in the active forces and beat patterns [5]: increases contractility

Structure (SMILES): CCN(CC)CC(=O)Nc1c(C)cccc1C [lidocaine]
changes in the active forces and beat patterns [5]: inhibits tissue electrical excitability

Structure (SMILES): CN(CCOc1ccc(NS(C)(=O)=O)cc1)CCc1ccc(NS(C)(=O)=O)cc1 [dofetilide]
responses on action potentials [4]: predictable responses

Structure (SMILES): COc1ccc(CCN(C)CCCC(C#N)(c2ccc(OC)c(OC)c2)C(C)C)cc1OC (centres unmarked) [verapamil]
responses on action potentials [4]: predictable responses

Structure (SMILES): Cc1cccc(CCN2CCC(C(=O)c3ccc(NS(C)(=O)=O)cc3)CC2)n1 [E-4031]
changes in the active forces and beat patterns [5]: promotes spontaneous irregular beating patterns consistent with arrhythmias

Structure (SMILES): Cc1[nH]c(=O)c(C#N)cc1-c1ccncc1 [milrinone]
changes in the active forces and beat patterns [5]: enhances contractility

fluorescence in chip after washout [6]: remained widespread
fluorescence levels in solution versus PDMS chips ([7]; 1 μM dye, 37° C., incubation 24 hours and longer): remained higher than in PDMS chips
fluorescence in chip after washout ([7]; 1 wk incubation then washout for 2 hours): undetectable
levels versus tissue plastic well controls ([7]; after 6 hours): not significantly different
Structure (SMILES): CCN(CC)c1ccc2c(-c3ccccc3C(=O)O)c3ccc(=[N+](CC)CC)cc-3oc2c1.[Cl-] [Rhodamine B]

Structure (SMILES): C/C=C(/C)C(=O)O[C@H]1C(C)=C2[C@H]([C@@H]1OC(=O)CCCCCCC)[C@@](C)(OC(C)=O)C[C@H](OC(=O)CCC)[C@@]1(O)[C@H]2OC(=O)[C@@]1(C)O [thapsigargin]
force and Ca′ transient amplitudes [8]: dose-dependently decreased
potency in ventricular versus atrial preparations ([9]; decrease of force and Ca′ transient amplitudes): higher potency in ventricle
time-to-peak and decay rates of both force and Ca2+ ([9]; ventricular Biowires, low pacing rates): prolonged
force and Ca′ transient amplitudes ([9]; ventricular preparations, increasing concentrations): dose-dependently decreased

Structure (SMILES): NCCc1c[nH]c2ccc(O)cc12 [serotonin]
Ca2+ transients [10]: increased; also recorded: positive inotropic effect

Structure (SMILES): C[N+](C)(C)CCOC(N)=O [carbachol]
APDs (action potential durations) ([3]; atrial Biowires): abbreviated APDs; also recorded: shortened atrial APDs only
APDs (action potential durations) ([4]; ventricular tissues): without affecting these parameters
